How the values were obtained:
[1] = test system: T47D cells; assay: Anti-HER2 mAb delivery efficiency using LL37-derived peptide constructs; assay type: cell-based, human; conditions: peptide conjugated to anti-HER2 mAb light chain, 100 nM Ab, Z-GFP (PEP#6, 35-43) or Goat anti-human IgG-AlexaFluor 488 (PEP#6, 47-94) fluorescence microscopy
Protocol: (§1) LL37 and LL37-derived peptides were produced synthetically with two additional N-terminal glycine residues (e.g. as shown in SEQ ID NO:2 compared to SEQ ID NO: 1) to enable the sortase reaction. The LL37-derived peptides (PEP#35 to #43, SEQ ID NOs: 13-21) were all dissolved at 10 mg/ml in phosphate buffer saline (PBS) at room temperature, sterile-filtered, and stored at -20° C. freezer. PEP#48 (SEQ ID: 74), PEP#49 (SEQ ID No: 75), and PEP#60 (SEQ ID NO: 105) were dissolved in 20% (v/v) acetonitrile in PBS. PEP#47 (SEQ ID NO: 96), PEP#86 (SEQ ID NO: 78), PEP#98 (SEQ ID NO: 79), PEP#99 (SEQ ID NO: 80), PEP#102 (SEQ ID NO: 82), and PEP#104 (SEQ ID NO: 84) were dissolved in DMSO. PEP#50 (SEQ ID No: 76), PEP#51 (SEQ ID No: 97), PEP#55 (SEQ ID No: 77), PEP#58 (SEQ ID No: 103), PEP#59 (SEQ ID No: 104), PEP#61 (SEQ ID No: 106), PEP#62 (SEQ ID No: 107), PEP#63 (SEQ ID No: 108), PEP#64 (SEQ ID No: 109), PEP#66 (SEQ ID No: 110), and PEP#94 (SEQ ID No: 35) were all dissolved in PBS. […] The reaction was incubated inside a 37° C. incubator for 16 hours, and then EDTA (pH 7.5) was added to 10 mM in the reaction mixture to chelate calcium and stop the reaction.
Delivery assay: The following delivery assay method was used on the anti-HER2 mAbs conjugated to the PEP#6, #35, #36, #37, #38, #39, #40, #41, #42, and #43 described in Table 7. […] The plates were then removed from the incubator, and the culturing media was removed from the adherent cells. The adherent cells were washed gently with an equal volume of ice-cold PBS. Then, the PBS wash was replaced 250 µl of fresh PBS for fluorescence microscope imaging.
At the end of incubation, the adherent target cells were washed twice with ice-cold PBS, fixed with 2% (w/v) formaldehyde in PBS at room temperature for 15 minutes, and washed twice with PBS at room temperature. The fixed adherent target cells were then permeabilized with 0.05% (v/v) Tween-20 in PBS at room temperature for 15 minutes. The permeabilized cells were then incubated with 5% (v/v) FBS, 0.05% (v/v) Tween-20 in PBS at 37 degree Celsius incubator for 30 minutes. The secondary antibody, Goat anti-human IgG-AlexaFluor 488, was added to 5 ug/ml in 5% (v/v) FBS, 0.05% (v/v) Tween-20 in PBS, and incubated with the treated target cells at 37 degree Celsius incubator for 30 minutes. After incubation, the labelled cells were washed twice with PBS, and stored in storage buffer [5% (v/v) FBS in PBS] at 4 degree Celsius until fluorescence microscope imaging. The delivery of mAb and mAb-LL37-derived peptides were determined qualitatively by estimating the green fluorescence intensity emitted from the AlexFluor488-labelled secondary antibody bound to mAb or mAb-LL37-derived peptides.

[2] = test system: T47D cells; assay: Anti-HER2 mAb delivery efficiency using antimicrobial peptides; assay type: cell-based, human; conditions: peptide conjugated to anti-HER2 mAb, 100 nM + 100 nM Z-GFP, 4 hours
Protocol: as §1
The plates were then removed from the incubator, and the culturing media was removed from the adherent cells. […] Then, the PBS wash was replaced 250 µl of fresh PBS for fluorescence microscope imaging.

LLGDFFRKSKEKIGKEFKRIVQRIKDFLRNLVPRTES [PEP#6 (LL37), two N-terminal glycines added for conjugation]
Delivery efficiency [1]: +++ (Same as LL37)
Delivery efficiency [2]: +++ (Same as LL37)
